Experimental data from US20160280651A1, “COMPOUNDS THAT INDUCE ABA RESPONSES” (THE REGENTS OF THE UNIVERSITY OF CALIFORNIA, priority 2013, published 2016).

Key:
[1] = test system: ZmRab17 and ZmLEA; experiment: Quantitative RT-PCR of ABA-responsive genes in maize; format: in vivo
Source text: FIG. 13A-FIG. 13E. LC66C6 modulates ABA responses in diverse species. Germination inhibition (A) and transpirational water loss in detached leaves 2-hours after detachment (B) in response to compounds shown. The expression of ABA-responsive marker genes in Soybean (C), Barley (D) and Maize (E) after application of chemicals. D, P, L and A indicate DMSO, pyrabactin, LC66C6 and (+)-ABA, respectively.
Total RNA was isolated using Plant RNA purification reagent (Invitrogen, USA) according to the manufacturer's instructions. cDNA was synthesized from 1 μg of total RNA using the QantiTec reverse transcription kit (Qiagen, USA). Real-time PCR using Maxima® SYBR Green/Fluorescein qPCR Master Mix (Fermentas) was performed with the iQ5 real-time PCR detection system (Bio-Rad, Hercules, Calif.). The relative amounts of target mRNAs were determined using the relative standard curve method and were normalized by relative amount of internal control mRNA. Biological triplicate experiments were performed.

[2] = test system: aba2 mutant plants; experiment: Rescue of growth defects of ABA-deficient mutant aba2; format: in vivo, Arabidopsis; details: 25 μM sprayed two times a day for two weeks; versus DMSO
Experimental: FIG. 16A-FIG. 16B. Application of LC66C6 can rescue growth defects observed in the ABA-deficient mutant aba2. Chemical solution (25 μM) was sprayed on 14-day-plants two times per day for 2 weeks. The image (A) and fresh weight (B) were obtained from 4-week plants.
In this example, 14-day old wild-type and aba2 mutant plants were sprayed with a solution containing 25 μM of agonist two times a day for two weeks. Images and fresh weight were obtained from 4 week old plants.

[3] = test system: ABI1 with PYR/PYL receptors; experiment: Receptor-mediated PP2C inhibition assay with ABI1, Example 1; format: biochemical, Arabidopsis; details: 10 μM; receptors PYR1, PYL1, PYL2, PYL3 and PYL5
Experimental: FIG. 2A-FIG. 2C. Novel ABA agonists inhibit PPC2 activity through multiple PYR/PYL. (A) Chemical structure of naturally occurring (+)-ABA and selected ABA agonists. (B) and (C) HAB1, ABU, and ABI2 PP2C enzyme activity based ABA-agonist assays for various receptors in the presence or absence of 10 μM each test chemical.
HAB1 and PYL proteins were expressed and purified as described previously (Park S Y, et al. (2009) Abscisic Acid Inhibits Type 2C Protein Phosphatases via the PYR/PYL Family of START Proteins. Science 324(5930):1068-1071), with minor modifications. To obtain GST-HAB1, -ABI1 and -ABI2 fusion proteins, the HAB1 cDNA was cloned into pGex-2T whereas ABI1 and ABI2 cDNAs were cloned into the vector pGex-4T-1. […] After 16 hours incubation at 15° C., cells were harvested and recombinant proteins were purified on glutathione agarose as described previously (Park S Y, et al. (2009). To obtain 6×His-PYL receptor fusion proteins, receptor cDNAs for all 13 ABA receptors were cloned into the vector pET28 and expressed and purified as described previously (Mosquna A, et al. (2011) Potent and selective activation of abscisic acid receptors in vivo by mutational stabilization of their agonist-bound conformation. PNAS 108(51):20838-20843); this yielded soluble and functional protein (assessed using receptor-mediated PP2C inhibition assays) for all receptors except PYL7, PYL11 and PYL12. […]

[4] = test system: Arabidopsis plants; experiment: Stomatal aperture measurement; format: in vivo; details: wild-type, aba2 and abi1-1; 25 μM spray
Experimental: Physiological assays were performed on Arabidopsis plants grown at 22±2° C. and relative humidity (RH) 45±10% under a 16/8-h light/dark cycle. For transpirational water loss analyses in Arabidopsis, plants were pre-treated by aerosol spray of 4 ml solution containing 25 μM compound and 0.05% Tween-20. 12 4-week old plants were sprayed per compound or control analyzed. After overnight pre-treatment with compounds, the aerial portions were detached from roots, and their fresh weight measured at 20 min intervals over a 2 hour time period. To measure stomatal aperture, plants were pre-treated with compounds as described above, covered with plastic lids to maintain high RH and after overnight pre-treatment leaf epidermal impressions were obtained using Suzuki's Universal Micro-Printing (SUMP) method using SUMP impression solution with SUMP B plates (SUMP Laboratory). The leaf impressions were analyzed by light microscopy and stomatal apertures were determined from the pore widths using ImageJ 1.43v software (National Institutes of Health, USA). […] Pots were covered in Parafilm to so that the water loss measured was transpiration mediated. Soil water content % was determined by measuring pot weight and computed by removing dry soil weight from total weight.

[5] = test system: Arabidopsis seedlings; experiment: Root growth and plant growth inhibition of Arabidopsis seedlings; format: in vivo
Experimental: FIG. 6A-FIG. 6C. LC66C6 inhibits plant growth. (A) Photographs showing the effect of ABA, Pyrabactin and LC66C6 on the wild type, abi1-1 and PYR/PYL quadruple mutant Arabidopsis genotypes. (B) Root growth inhibition and (C) plant growth inhibition by ABA, LC66C6 and pyrabactin. Two day old seedlings were transferred on ½×MS plate containing chemicals and phenotypes scored or photographed after a 5-day incubation on test compounds.

CCCN1C(=O)CCc2cc(NS(=O)(=O)Cc3ccc(C)cc3)ccc21 [LC66C6]
Expression of ABA-responsive genes ZmRab17 and ZmLEA [1]: weakly induces | Size of aba2 mutant plants [2]: significantly increased the size of the mutant plants | PP2C inhibition of ABI1 [3]: > 70% | Stomatal closure [4]: induces stomatal closure in wild-type and the aba2 mutant, but not in the abi1-1 mutant | Inhibition of plant growth ([5]; wild-type and mutant plants): significantly greater than the inhibition by pyrabactin, and comparable to that of (+)-ABA | Inhibition of root elongation ([5]; wild-type, abi1 and quadruple mutant, all concentrations tested): comparable to or slightly more effective than (+)-ABA
